{"source": "paper PMC5104425", "about": "“A Novel Selective Inhibitor of Delta-5 Desaturase Lowers Insulin Resistance and Reduces Body Weight in Diet-Induced Obese C57BL/6J Mice” (PLoS ONE, 2016)", "key": {"[1]": {"target": "T1, human D6D (Homo sapiens, UniProt O95864)", "T1 construct": "endogenous in cells; host or cells: HepG2", "T1 sequence (O95864 1-444)": "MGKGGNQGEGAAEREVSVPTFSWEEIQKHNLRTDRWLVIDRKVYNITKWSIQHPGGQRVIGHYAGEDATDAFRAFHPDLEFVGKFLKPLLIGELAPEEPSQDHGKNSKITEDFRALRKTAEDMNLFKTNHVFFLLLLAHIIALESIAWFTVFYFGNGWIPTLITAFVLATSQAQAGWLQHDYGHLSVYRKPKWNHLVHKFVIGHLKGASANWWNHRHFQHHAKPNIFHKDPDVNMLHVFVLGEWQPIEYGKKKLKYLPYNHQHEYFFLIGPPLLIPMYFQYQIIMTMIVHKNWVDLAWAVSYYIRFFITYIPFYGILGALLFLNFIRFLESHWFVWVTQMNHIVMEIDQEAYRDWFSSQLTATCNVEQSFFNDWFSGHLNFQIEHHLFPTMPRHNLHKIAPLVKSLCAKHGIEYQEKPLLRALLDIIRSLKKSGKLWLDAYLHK", "assay": "In vitro cell-based assay for desaturase activity (HepG2), D6D", "procedure": "HepG2 cells were seeded in 96-well cell culture plates at 100 000 cells/well and incubated overnight in DMEM supplemented with 10% fetal bovine serum, 100 U/mL penicillin, and 100 μg/mL streptomycin in 5% CO2 at 37°C. The cells were washed twice with 200 μL of PBS and incubated with the test compounds in DMEM with 0.1% fatty acid free BSA for 30 min. Then, 0.1 μCi/well of [^14C]-labeled DGLA, linoleic acid, and stearic acid (ARC, St. Louis, MO) were added for each desaturase assay. After incubation for 3 h at 37°C, the cells were washed 3 times with 200 μL of PBS to remove [^14C]-labeled substrates in the medium and 0.63 N of NaOH was added to saponify fatty acids. Radioactive substrates and products were extracted, separated, and analyzed using the method as described above."}, "[2]": {"tested_on": "DIO mice", "assay": "Oral glucose tolerance test and HOMA-IR after 6-week treatment in DIO mice", "assay_type": "in vivo, C57BL/6J mice", "procedure": "Mice were fed a high-fat diet (HFD) that has 60% kcal from fat and contains 0.09% (w/w) AA (D12492; Research diets, Inc., see S1 Table for fatty acid profile) from 5 weeks of age, and they were divided into 5 groups (7 animals per group) at 11 weeks of age based on BW and daily food intake. In this experiment, 30 mg/kg sibutramine, a […], was used as a positive control for anti-obesity effects. Mice were orally administered compound-326 at doses of 0.1, 1, and 10 mg/kg, sibutramine at a dose of 30 mg/kg, or vehicle for 6 weeks. After 6 weeks, blood concentrations of DGLA and AA under non-fasting condition were evaluated as pharmacodynamics (PD) markers, and oral glucose tolerance test (OGTT) was performed.\nOn the last day of the experiment, mice were given an oral glucose load (2 g/kg) after overnight fasting. Blood samples were collected at specified time points of 0 (pre-glucose/fasting glucose levels), 10, 30, 60, and 120 min post glucose load for the determination of plasma glucose as well as insulin levels. Plasma glucose was enzymatically measured with auto-analyzer 7180 (Hitachi High-Technologies Corporation, Tokyo, Japan). Plasma insulin was measured with mouse insulin ELISA kit (Shibayagi, Gunma, Japan). The total area under the glucose curve was determined from time 0 to 120 min (AUC0–120 min) after glucose administration. Homeostasis model assessment-insulin […] (HOMA-IR) was calculated using the formula: [(fasted PG: mg/dL)×(fasted insulin; μU/mL)[…]/405] [28]."}, "[3]": {"tested_on": "DIO mice", "assay": "Established DIO mice (HFD D12079B for 50 weeks), 11-week treatment: BW, calorie intake, fat mass", "assay_type": "in vivo, C57BL/6J mice", "procedure": "In this report, we performed 3 independent studies in DIO mice to characterize anti-obesity effects of our D5D specific inhibitor. Male C57BL/6J mice were obtained from Charles River Laboratories (Yokohama, Japan) or CLEA Japan (Osaka, Japan). The mice were fed a laboratory chow and water ad libitum and housed in a 12-h light/dark cycle. Compound or vehicle was administered once daily between 15: 00–19:00 by oral gavage. Body weight (BW) and food intake were monitored throughout the experiment.\n(§1) To evaluate the effect on daily EE, DIO mice fed a HFD that has 41% kcal from fat and contains no AA (D12079B; Research diets, Inc., see S1 Table for fatty acids composition) for 50 weeks were used. At 55 weeks of age, DIO mice were divided into two weight-matched groups (7 animals per group) and treated with vehicle or 10 mg/kg compound-326 for 11 weeks. […] Indirect calorimetry test was performed on day1, 8, 15, 21, and 56 during the study. Daily EE was analyzed using ANCOVA with body mass as covariate. After the treatment period, mice were sacrificed and fat tissues were harvested to evaluate the weights."}, "[4]": {"tested_on": "DIO mice", "assay": "Indirect calorimetry test (energy expenditure, RER) in established DIO mice", "assay_type": "in vivo, C57BL/6J mice", "settings": "10 mg/kg", "procedure": "as §1\nEnergy metabolism was evaluated using an Oxymax indirect calorimetry system (Columbus Instruments, Columbus, OH). Mice were individually housed in the chamber with a 12-h light/dark cycle. VO2 and VCO2 rates were determined with the following Oxymax system settings: air flow, 0.6 L/min; sample flow, 0.5 l/min; settling time, 10 min; and measuring time, 1 min. The system was calibrated against a standard gas mixture to measure O2 consumed (VO2, mL/kg/h) and CO2 generated (VCO2, mL/kg/h). Metabolic rate (VO2) and respiratory exchange ratio (RER; ratio of VCO2/VO2) were evaluated over a 24-h period. Energy expenditure was calculated as the product of the calorific value of oxygen (3.815+1.232×RER) and the volume of O2 consumed."}, "[5]": {"tested_on": "DIO mice", "assay": "6-week treatment of HFD (D12079B)-fed DIO mice: BW and blood/tissue fatty acids", "assay_type": "in vivo, C57BL/6J mice", "procedure": "Fatty acids were extracted from blood and tissues by adding hexane-isopropanol-butylated hydroxytoluene (60:40:0.01, v/v/w). Samples were vortexed for 30 min. The hexane phase was removed and evaporated to dryness under nitrogen stream and vacuum. Dried samples were dissolved in methanol and analyzed by HPLC.\nMice fed a HFD that has 41% kcal from fat and contains no AA (D12079B; Research diets, Inc.) from 5 weeks of age were divided into 2 groups at the age of 8 weeks (8 animals per group), and were administered 10 mg/kg compound-326 or vehicle for 6 weeks. After the treatment period, mice were sacrificed and epididymal and subcutaneous fats were harvested for mRNA analysis. Nine animals maintained on a standard chow (CE2, CLEA Japan, Osaka) were used as control."}, "[6]": {"settings": "10 mg/kg, after 6-week treatment"}}, "data": [{"smiles": "O=C1Cc2c(nc(OCC(F)(F)C(F)(F)F)n(-c3ccc(OCC(F)(F)F)cc3)c2=O)N1", "note": "[Compound-326, 2-(2,2,3,3,3-Pentafluoropropoxy)-3-[4-(2,2,2-trifluoroethoxy)phenyl]-5,7-dihydro-3H-pyrrolo[2,3-d]pyrimidine-4,6-dione]", "values": [{"measurement": "inhibition of D6D activity", "setting": "[1]", "result": "almost no inhibition"}, {"measurement": "IC50", "setting": "[1]; Cell-based (HepG2)", "result": "> 10", "unit": "µM"}, {"measurement": "HOMA-IR", "setting": "[2]; compound-326 0.1, 1, 10 mg/kg, after 6-week treatment, dose-dependent", "result": "decreased"}, {"measurement": "insulin levels (OGTT)", "setting": "[2]; compound-326, after 6-week treatment", "result": "no change"}, {"measurement": "glucose tolerability and insulin sensitivity", "setting": "[2]; observed from dose of 1 mg/kg without a significant decrease in BW", "result": "improvement"}, {"measurement": "daily calorie intake", "setting": "[3]; 10 mg/kg p.o., 11 weeks", "result": "slightly decreased until day 21, followed by a trend toward increase"}, {"measurement": "cumulative calorie intake", "setting": "[3]; 10 mg/kg p.o., 11 weeks (data not shown)", "result": "no appreciable change"}, {"measurement": "BW", "setting": "[3]; 10 mg/kg p.o., 11 weeks, from day 21 until day 77", "result": "sustained and significant BW reduction"}, {"measurement": "white adipose tissue (WAT) depot mass", "setting": "[3]; 10 mg/kg, 11 weeks, mesenteric fat p≤0.05, subcutaneous and epididymal fat p≤0.01 vs vehicle", "result": "marked decrease"}, {"measurement": "daily EE relative to body mass", "setting": "[4]; day 15, independent of decreased BW", "result": "increased"}, {"measurement": "daily EE (kcal/day) plotted against body mass", "setting": "[4]; days 1 and 8, vs vehicle", "result": "no difference"}, {"measurement": "difference in daily EE lines vs vehicle", "setting": "[4]; days 21 and 56", "result": "became more apparent"}, {"measurement": "RER", "setting": "[4]; relative to vehicle through the study, did not reach significance", "result": "lower"}, {"measurement": "AA to DGLA ratio in epididymal fat", "setting": "[5]; 10 mg/kg p.o., 6 weeks", "result": "significantly decreased"}, {"measurement": "AA to DGLA ratio in the blood", "setting": "[5]; 10 mg/kg p.o., 6 weeks", "result": "decrease"}, {"measurement": "AA to DGLA ratio in the liver", "setting": "[5]; 10 mg/kg p.o., 6 weeks", "result": "significantly decreased"}, {"measurement": "n-3 PUFA (EPA and DHA) in blood, liver, and adipose tissue", "setting": "[5]; 10 mg/kg p.o., 6 weeks", "result": "significantly decreased"}, {"measurement": "BW", "setting": "[5]; 10 mg/kg p.o., 6 weeks, vs vehicle", "result": "significantly decreased"}, {"measurement": "AA in the blood as well as liver", "setting": "[5]; [6]", "result": "decrease"}, {"measurement": "DGLA in the blood as well as liver", "setting": "[5]; [6]", "result": "increase"}]}]}
